Data from patent publication US8741934B2, “Inhibitors of ion channels” (Pfizer Limited, priority 2007, dated 2014).

Target: T1, hSCN3A sodium channels (Homo sapiens, UniProt Q9NY46)
T1 construct: expressed in transfected cells
Assay: hSCN3A electrophysiology, Ionworks Quattro automated platform (Table C)
Assay type: cell-based
Details: for inhibition at 3 µM: 3 μM compound, read-out: SCN3A % INHIB HTS IWQ 3 μM; for inhibition at 10 µM: 10 μM compound, read-out: SCN3A % INHIB HTS IWQ 10 μM
Protocol: Human Embryonic Kidney (HEK) cells were transfected with an hSCN3A construct using lipofectamine reagent (Invitrogen), using standard techniques. […] Clones were screened for expression using the whole-cell voltage-clamp technique.
HEK cells stably transfected with hSCN3A were maintained in DMEM medium supplemented with 10% heat-inactivated fetal bovine serum and 400 μg/ml G418 sulfate in an incubator at 37° C. with a humidified atmosphere of 10% CO2. […] For electrophysiological studies, cells were removed from the culture flask by brief trypsinization and replated at low density onto glass cover slips. Cells were typically used for electrophysiological experiments within 24 to 72 h after plating.
Electrophysiological assays were also conducted using the Ionworks Quattro automated electrophysiological platform (Molecular Devices Corp) (Table C). Intracellular and extracellular solutions were as described above with the following changes, 100 μg/ml amphotericin was added to the intracellular solution to perforate the membrane and allow electrical access to the cells. hSCN3A cells were grown and harvested as for PatchXpress and cells were resuspended in extracellular solution at a concentration of 3-4×10^6 cells/ml. The onboard liquid handling facility of the Ionworks Quattro was used for dispensing cells and application of test compounds. A voltage protocol was then applied that comprised of a voltage step to fully inactivate the sodium channels, followed by a brief hyperpolarized recovery period to allow partial recovery from inactivation for unblocked sodium channels, followed by a test depolarized voltage step to assess magnitude of inhibition by test compound. Compound effect was determined based on current amplitude difference between the pre-compound addition and post-compound addition scans.

T1 sequence (Q9NY46 whole entry): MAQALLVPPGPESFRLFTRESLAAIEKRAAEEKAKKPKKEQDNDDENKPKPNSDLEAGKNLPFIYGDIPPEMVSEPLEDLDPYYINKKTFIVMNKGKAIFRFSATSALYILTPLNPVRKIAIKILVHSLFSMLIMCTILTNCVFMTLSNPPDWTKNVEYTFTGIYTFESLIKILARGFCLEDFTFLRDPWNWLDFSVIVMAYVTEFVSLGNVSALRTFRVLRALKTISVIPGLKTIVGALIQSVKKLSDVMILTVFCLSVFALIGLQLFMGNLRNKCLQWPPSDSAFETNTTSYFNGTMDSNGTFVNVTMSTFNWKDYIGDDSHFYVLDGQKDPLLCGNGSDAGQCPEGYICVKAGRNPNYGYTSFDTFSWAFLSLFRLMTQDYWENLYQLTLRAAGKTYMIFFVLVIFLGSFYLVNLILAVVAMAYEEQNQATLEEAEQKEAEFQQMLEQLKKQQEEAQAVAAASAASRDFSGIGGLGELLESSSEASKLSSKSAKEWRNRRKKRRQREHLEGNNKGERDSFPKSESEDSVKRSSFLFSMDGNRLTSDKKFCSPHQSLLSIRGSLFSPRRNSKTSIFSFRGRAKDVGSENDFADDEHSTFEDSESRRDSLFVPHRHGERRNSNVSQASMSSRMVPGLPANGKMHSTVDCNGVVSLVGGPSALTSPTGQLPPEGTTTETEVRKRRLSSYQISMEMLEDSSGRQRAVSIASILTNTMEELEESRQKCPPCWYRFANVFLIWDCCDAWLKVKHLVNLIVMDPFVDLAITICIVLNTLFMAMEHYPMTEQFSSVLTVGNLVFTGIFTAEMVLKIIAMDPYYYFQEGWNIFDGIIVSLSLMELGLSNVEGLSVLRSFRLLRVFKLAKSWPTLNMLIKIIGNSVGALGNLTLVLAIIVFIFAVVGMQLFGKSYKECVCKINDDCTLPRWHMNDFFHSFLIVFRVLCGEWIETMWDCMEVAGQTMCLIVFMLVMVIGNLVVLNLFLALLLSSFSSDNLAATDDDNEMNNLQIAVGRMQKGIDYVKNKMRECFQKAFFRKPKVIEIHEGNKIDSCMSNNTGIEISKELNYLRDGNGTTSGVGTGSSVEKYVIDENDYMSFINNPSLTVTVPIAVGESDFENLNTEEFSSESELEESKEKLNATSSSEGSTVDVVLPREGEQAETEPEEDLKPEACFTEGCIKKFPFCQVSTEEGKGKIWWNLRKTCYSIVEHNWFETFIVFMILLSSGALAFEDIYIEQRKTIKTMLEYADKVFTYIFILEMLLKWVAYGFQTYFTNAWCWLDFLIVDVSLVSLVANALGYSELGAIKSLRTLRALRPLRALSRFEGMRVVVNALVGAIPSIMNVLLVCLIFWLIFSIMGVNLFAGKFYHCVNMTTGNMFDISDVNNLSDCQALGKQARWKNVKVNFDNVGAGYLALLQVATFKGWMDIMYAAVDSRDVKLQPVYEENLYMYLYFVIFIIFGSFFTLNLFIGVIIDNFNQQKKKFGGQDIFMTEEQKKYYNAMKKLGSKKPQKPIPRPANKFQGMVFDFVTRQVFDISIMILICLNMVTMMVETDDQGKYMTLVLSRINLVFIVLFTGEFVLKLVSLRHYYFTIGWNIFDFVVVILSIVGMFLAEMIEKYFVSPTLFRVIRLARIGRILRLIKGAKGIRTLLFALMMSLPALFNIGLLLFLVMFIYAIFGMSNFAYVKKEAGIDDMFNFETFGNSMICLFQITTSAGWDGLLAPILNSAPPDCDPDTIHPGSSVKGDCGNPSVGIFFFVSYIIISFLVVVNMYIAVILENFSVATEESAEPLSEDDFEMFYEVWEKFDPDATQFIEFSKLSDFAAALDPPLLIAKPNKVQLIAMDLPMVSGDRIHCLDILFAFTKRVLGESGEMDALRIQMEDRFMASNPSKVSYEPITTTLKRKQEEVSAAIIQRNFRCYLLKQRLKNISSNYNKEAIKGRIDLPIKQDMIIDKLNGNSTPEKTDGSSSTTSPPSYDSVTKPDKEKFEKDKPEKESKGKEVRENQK

Row | Structure (SMILES) | inhibition at 3 µM [%] | inhibition at 10 µM [%]
1 | O=C(NC(CO)c1ccccc1Cl)c1ccc(S(=O)(=O)Nc2nccs2)cc1 (stereo not drawn) [Example 56, N-[1-(2-chlorophenyl)-2-hydroxyethyl]-4-[(1,3-thiazol-2-ylamino)sulfonyl]benzamide] | 3.23 | 2.53
2 | O=C(NC(CO)c1ccccc1)c1ccc(S(=O)(=O)Nc2nccs2)cc1 (stereo not drawn) [Example 57, N-(2-hydroxy-1-phenylethyl)-4-[(1,3-thiazol-2-ylamino)sulfonyl]benzamide] | 25.2 | 47.8
3 | Cc1ccc(F)cc1CNC(=O)c1ccc(S(=O)(=O)Nc2nccs2)cc1 [Example 58, N-(5-fluoro-2-methylbenzyl)-4-[(1,3-thiazol-2-ylamino)sulfonyl]benzamide] | 37.4 | 49.7
4 | O=C(NCc1ccccc1OC(F)F)c1ccc(S(=O)(=O)Nc2nccs2)cc1 [Example 66, N-[2-(difluoromethoxy)benzyl]-4-[(1,3-thiazol-2-ylamino)sulfonyl]benzamide] | 16.4 | 34.4
5 | Cc1cccc(CNC(=O)c2ccc(S(=O)(=O)Nc3nccs3)cc2)c1 [Example 71, N-(3-methylbenzyl)-4-[(1,3-thiazol-2-ylamino)sulfonyl]benzamide] | 38.8 | 37.1
6 | O=C(NCc1cc(C(F)(F)F)ccc1F)c1ccc(S(=O)(=O)Nc2nccs2)cc1 [Example 76, N-[2-fluoro-5-(trifluoromethyl)benzyl]-4-[(1,3-thiazol-2-ylamino)sulfonyl]benzamide] | 35.8 | 52.1
7 | O=C(NCCc1ccccc1F)c1ccc(S(=O)(=O)Nc2nccs2)cc1 [Example 77, N-[2-(2-fluorophenyl)ethyl]-4-[(1,3-thiazol-2-ylamino)sulfonyl]benzamide] | 16.6 | 27.9
8 | Cc1ccc([C@H](C)NC(=O)c2ccc(S(=O)(=O)Nc3nccs3)cc2)cc1 [Example 79, N-[(1S)-1-(4-methylphenyl)ethyl]-4-[(1,3-thiazol-2-ylamino)sulfonyl]benzamide] | 17.7 | -1.9
9 | O=C(NCc1cc(F)ccc1C(F)(F)F)c1ccc(S(=O)(=O)Nc2nccs2)cc1 [Example 81, N-[5-fluoro-2-(trifluoromethyl)benzyl]-4-[(1,3-thiazol-2-ylamino)sulfonyl]benzamide] | 34.7 | 65.7
10 | Cc1cccc(CNC(=O)c2ccc(S(=O)(=O)Nc3nccs3)cc2)c1C [Example 82, N-(2,3-dimethylbenzyl)-4-[(1,3-thiazol-2-ylamino)sulfonyl]benzamide] | 29.7 | 63
11 | O=C(NCc1c(F)cccc1C(F)(F)F)c1ccc(S(=O)(=O)Nc2nccs2)cc1 [Example 84, N-[2-fluoro-6-(trifluoromethyl)benzyl]-4-[(1,3-thiazol-2-ylamino)sulfonyl]benzamide] | 17.7 | 22.2
12 | O=C(NCc1c(F)cccc1Cl)c1ccc(S(=O)(=O)Nc2nccs2)cc1 [Example 86, N-(2-chloro-6-fluorobenzyl)-4-[(1,3-thiazol-2-ylamino)sulfonyl]benzamide] | 22.3 | 26.3
13 | O=C(NCc1cc(F)ccc1F)c1ccc(S(=O)(=O)Nc2nccs2)cc1 [Example 87, N-(2,5-difluorobenzyl)-4-[(1,3-thiazol-2-ylamino)sulfonyl]benzamide] | 36.9 | 46.2
14 | CCOc1ccccc1CNC(=O)c1ccc(S(=O)(=O)Nc2nccs2)cc1 [Example 89, N-(2-ethoxybenzyl)-4-[(1,3-thiazol-2-ylamino)sulfonyl]benzamide] | 14 | 48.2
15 | Cc1ccc(CNC(=O)c2ccc(S(=O)(=O)Nc3nccs3)cc2)cc1 [Example 98, N-(4-methylbenzyl)-4-[(1,3-thiazol-2-ylamino)sulfonyl]benzamide] | 28.1 | 36.6
16 | O=C(NCCc1ccc(F)cc1)c1ccc(S(=O)(=O)Nc2nccs2)cc1 [Example 102, N-[2-(4-fluorophenyl)ethyl]-4-[(1,3-thiazol-2-ylamino)sulfonyl]benzamide] | 22.4 | 37.2
17 | CC(NC(=O)c1ccc(S(=O)(=O)Nc2nccs2)cc1)c1ccc(F)cc1 (stereo not drawn) [Example 103, N-[1-(4-fluorophenyl)ethyl]-4-[(1,3-thiazol-2-ylamino)sulfonyl]benzamide] | 21.2 | 46.8
18 | O=C(NCC1(c2ccccc2)CCCC1)c1ccc(S(=O)(=O)Nc2nccs2)cc1 [Example 121, N-[(1-phenylcyclopentyl)methyl]-4-[(1,3-thiazol-2-ylamino)sulfonyl]benzamide] | 31.1 | 30.2
19 | CC(C)(NC(=O)c1ccc(S(=O)(=O)Nc2nccs2)cc1)c1cccc(Cl)c1 [Example 127, N-[1-(3-chlorophenyl)-1-methylethyl]-4-[(1,3-thiazol-2-ylamino)sulfonyl]benzamide] | 28.9 | 28.7
20 | O=C(N[C@@H]1CCC[C@@H]1c1cc(F)cc(F)c1)c1ccc(S(=O)(=O)Nc2nccs2)cc1 [Example 128, N-[(1R,2R)-2-(3,5-difluorophenyl)cyclopentyl]-4-[(1,3-thiazol-2-ylamino)sulfonyl]benzamide] | 11.7 | -1.66
21 | O=C(NC1(Cc2ccccc2Cl)CC1)c1ccc(S(=O)(=O)Nc2nccs2)cc1 [Example 129, N-[1-(2-chlorobenzyl)cyclopropyl]-4-[(1,3-thiazol-2-ylamino)sulfonyl]benzamide] | 13.6 | 24.2
22 | CC(Cc1ccc(C(F)(F)F)cc1)NC(=O)c1ccc(S(=O)(=O)Nc2nccs2)cc1 (stereo not drawn) [Example 130, N-{1-methyl-2-[4-(trifluoromethyl)phenyl]ethyl}-4-[(1,3-thiazol-2-ylamino)sulfonyl]benzamide] | 23.1 | 16.5
23 | O=C(N[C@H]1CCC[C@@H]1c1ccccc1)c1ccc(S(=O)(=O)Nc2nccs2)cc1 [Example 131, N-[(1S,2R)-2-phenylcyclopentyl]-4-[(1,3-thiazol-2-ylamino)sulfonyl]benzamide] | 27.2 | 13.1
24 | O=C(N[C@@H]1CCC[C@@H]1c1ccc(F)cc1)c1ccc(S(=O)(=O)Nc2nccs2)cc1 [Example 132, N-[(1R,2R)-2-(4-fluorophenyl)cyclopentyl]-4-[(1,3-thiazol-2-ylamino)sulfonyl]benzamide] | 19.7 | 15.3
25 | O=C(NC1(c2cccc(Cl)c2)CC1)c1ccc(S(=O)(=O)Nc2nccs2)cc1 [Example 135, N-[1-(3-chlorophenyl)cyclopropyl]-4-[(1,3-thiazol-2-ylamino)sulfonyl]benzamide] | 27.4 | 30.1
26 | O=C(NC1(Cc2cccc(Cl)c2)CC1)c1ccc(S(=O)(=O)Nc2nccs2)cc1 [Example 137, N-[1-(3-chlorobenzyl)cyclopropyl]-4-[(1,3-thiazol-2-ylamino)sulfonyl]benzamide] | 21.8 | 36.2
27 | O=C(N[C@@H]1CCC[C@@H]1c1ccccc1)c1ccc(S(=O)(=O)Nc2nccs2)cc1 [Example 138, N-[(1R,2R)-2-phenylcyclopentyl]-4-[(1,3-thiazol-2-ylamino)sulfonyl]benzamide] | 16.2 | 11.2
